The source of these data is patent publication US5278285A, “Variant of Kunitz-type inhibitor derived from the α3-chain of human type VI collagen produced by recombinant DNA technology” (Bayer Aktiengesellschaft, priority 1990, dated 1994).

The conditions of test [1]: application during open heart surgery, clinical studies; cited from earlier work.
The test system of the next test is human trypsin. Kind of test: Trypsin inhibition assay. The test is classed as biochemical. The settings on record: substrate benzoyl-L-arginine p-nitroanilide; product expressed in yeast. Here is the method: The trypsin activity was determined using the method of geiger & Fritz, Methods of Enzymatic Analysis, Vol. V, 3rd ed., Bergmeyer (ed.), Verlag Chemie, Weinheim (1984), p. 121 with benzoyl-L-arginine p-nitroanilide as substrate. The liberated p-nitroaniline was measured in a spectrophotometer at 405 nm. Enzyme and inhibitor were preincubated for 15 min before addition of the substrate.

As for aprotinin, the blood loss result in test [1] is on record as “reduces blood loss significantly”.

With “α3(VI) inhibitor: Kunitz type proteinase inhibitor, aminoacid pos. 2873 to 2931 of the C5 domain of human type VI collagen α3 chain, expressed in yeast (pKol 100)”, the “trypsin inhibition (biological activity)” value in the test on human trypsin is on record as “inhibits human trypsin”.
